Results from ChEMBL document CHEMBL4219183, “Novel purine benzimidazoles as antimicrobial agents by regulating ROS generation and targeting clinically resistant Staphylococcus aureus DNA groove” (Bioorg Med Chem Lett, 2018).
Values after ≈ are worked out from the molar mass of the structure shown.

Key:
Format in all cases: functional
Pseudomonas aeruginosa [1] = experiment: Antibacterial activity against Pseudomonas aeruginosa ATCC 27853 after 24 hrs by two fold serial dilution method; conditions: ATCC 27853, 24 h
Klebsiella pneumoniae = experiment: Antibacterial activity against Klebsiella pneumoniae after 24 hrs by two fold serial dilution method
Escherichia coli [2] = experiment: Antibacterial activity against Escherichia coli after 24 hrs by two fold serial dilution method
Escherichia coli [3] = experiment: Antibacterial activity against Escherichia coli ATCC 25922 after 24 hrs by two fold serial dilution method; conditions: ATCC 25922, 24 h
Candida albicans [4] = experiment: Antifungal activity against Candida albicans after 24 hrs by two fold serial dilution method
Enterococcus faecalis = experiment: Antibacterial activity against Enterococcus faecalis after 24 hrs by two fold serial dilution method
Staphylococcus aureus [5] = experiment: Antibacterial activity against methicillin-resistant Staphylococcus aureus N315 after 24 hrs by two fold serial dilution method; conditions: N315, 24 h
Staphylococcus aureus [6] = experiment: Antibacterial activity against Staphylococcus aureus after 24 hrs by two fold serial dilution method
Candida tropicalis = experiment: Antifungal activity against Candida tropicalis after 24 hrs by two fold serial dilution method
Candida albicans [7] = experiment: Antifungal activity against Candida albicans ATCC 90023 after 24 hrs by two fold serial dilution method; conditions: ATCC 90023, 24 h
Candida parapsilosis = experiment: Antifungal activity against Candida parapsilosis ATCC 22019 after 24 hrs by two fold serial dilution method; conditions: ATCC 22019, 24 h
Staphylococcus aureus [8] = experiment: Antibacterial activity against Staphylococcus aureus ATCC 25923 after 24 hrs by two fold serial dilution method; conditions: ATCC 25923, 24 h
Staphylococcus aureus [9] = experiment: Antibacterial activity against Staphylococcus aureus ATCC 29213 after 24 hrs by two fold serial dilution method; conditions: ATCC 29213, 24 h
Aspergillus fumigatus = experiment: Antifungal activity against Aspergillus fumigatus after 24 hrs by two fold serial dilution method
Pseudomonas aeruginosa [10] = experiment: Antibacterial activity against Pseudomonas aeruginosa after 24 hrs by two fold serial dilution method
Acinetobacter baumannii = experiment: Antibacterial activity against Acinetobacter baumannii after 24 hrs by two fold serial dilution method

SMILES | MIC (Pseudomonas aeruginosa [1]) [µg/mL] | MIC (Klebsiella pneumoniae) [µg/mL] | MIC (Escherichia coli [2]) [µg/mL] | MIC (Escherichia coli [3]) [µg/mL] | MIC80 (Candida albicans [4]) [µg/mL] | MIC (Enterococcus faecalis) [µg/mL] | MIC (Staphylococcus aureus [5]) [µg/mL] | MIC (Staphylococcus aureus [6]) [µg/mL] | MIC80 (Candida tropicalis) [µg/mL] | MIC80 (Candida albicans [7]) [µg/mL] | MIC80 (Candida parapsilosis) [µg/mL] | MIC (Staphylococcus aureus [8]) [µg/mL] | MIC (Staphylococcus aureus [9]) [µg/mL] | MIC80 (Aspergillus fumigatus) [µg/mL] | MIC (Pseudomonas aeruginosa [10]) [µg/mL] | MIC (Acinetobacter baumannii) [µg/mL]
CCCCCCCCn1c(Cn2cnc3c(N4CCOCC4)ncnc32)nc2ccccc21 | 128 (≈ 286 µM) | 256 (≈ 572 µM) | 256 (≈ 572 µM) | 256 (≈ 572 µM) | 256 (≈ 572 µM) | 256 (≈ 572 µM) | 512 (≈ 1140 µM) | 512 (≈ 1140 µM) | 256 (≈ 572 µM) | 64 (≈ 143 µM) | 512 (≈ 1140 µM) | 512 (≈ 1140 µM) | 256 (≈ 572 µM) | 512 (≈ 1140 µM) | 256 (≈ 572 µM) | 256 (≈ 572 µM)
Fc1cccc(Cn2c(Cn3cnc4c(N5CCOCC5)ncnc43)nc3ccccc32)c1 | 128 (≈ 289 µM) | 16 (≈ 36.1 µM) | 256 (≈ 577 µM) | 256 (≈ 577 µM) | 256 (≈ 577 µM) | 128 (≈ 289 µM) | 512 (≈ 1150 µM) | 256 (≈ 577 µM) | 128 (≈ 289 µM) | 32 (≈ 72.2 µM) | 128 (≈ 289 µM) | 32 (≈ 72.2 µM) | 64 (≈ 144 µM) | 256 (≈ 577 µM) | 256 (≈ 577 µM) | 256 (≈ 577 µM)
CCCCn1c(Cn2cnc3c(N4CCOCC4)ncnc32)nc2ccccc21 | 128 (≈ 327 µM) | 256 (≈ 654 µM) | 64 (≈ 163 µM) | 128 (≈ 327 µM) | 256 (≈ 654 µM) | 256 (≈ 654 µM) | 512 (≈ 1310 µM) | 256 (≈ 654 µM) | 128 (≈ 327 µM) | 128 (≈ 327 µM) | 256 (≈ 654 µM) | 256 (≈ 654 µM) | 128 (≈ 327 µM) | 256 (≈ 654 µM) | 256 (≈ 654 µM) | 256 (≈ 654 µM)
Clc1ccccc1Cn1c(Cn2cnc3c(N4CCOCC4)ncnc32)nc2ccccc21 | 64 (≈ 139 µM) | 64 (≈ 139 µM) | 128 (≈ 278 µM) | 256 (≈ 557 µM) | 256 (≈ 557 µM) | 256 (≈ 557 µM) | 512 (≈ 1110 µM) | 256 (≈ 557 µM) | 256 (≈ 557 µM) | 256 (≈ 557 µM) | 256 (≈ 557 µM) | 256 (≈ 557 µM) | 32 (≈ 69.6 µM) | 256 (≈ 557 µM) | 128 (≈ 278 µM) | 256 (≈ 557 µM)
CC(=O)c1nc2ccccc2n1CCn1cnc2c(N3CCOCC3)ncnc21 | 32 (≈ 81.8 µM) | 32 (≈ 81.8 µM) | 128 (≈ 327 µM) | 128 (≈ 327 µM) | 256 (≈ 654 µM) | 64 (≈ 164 µM) | 256 (≈ 654 µM) | 32 (≈ 81.8 µM) | 256 (≈ 654 µM) | 128 (≈ 327 µM) | 512 (≈ 1310 µM) | 64 (≈ 164 µM) | 128 (≈ 327 µM) | 128 (≈ 327 µM) | 8 (≈ 20.4 µM) | 64 (≈ 164 µM)
Fc1ccccc1Cn1c(Cn2cnc3c(N4CCOCC4)ncnc32)nc2ccccc21 | 32 (≈ 72.2 µM) | 64 (≈ 144 µM) | 64 (≈ 144 µM) | 256 (≈ 577 µM) | 256 (≈ 577 µM) | 64 (≈ 144 µM) | 256 (≈ 577 µM) | 256 (≈ 577 µM) | 256 (≈ 577 µM) | 64 (≈ 144 µM) | 512 (≈ 1150 µM) | 128 (≈ 289 µM) | 16 (≈ 36.1 µM) | 64 (≈ 144 µM) | 32 (≈ 72.2 µM) | 128 (≈ 289 µM)
CCCCCCCCCCCCn1c(Cn2cnc3c(N4CCOCC4)ncnc32)nc2ccccc21 | 128 (≈ 254 µM) | 256 (≈ 508 µM) | 32 (≈ 63.5 µM) | 256 (≈ 508 µM) | 256 (≈ 508 µM) | 128 (≈ 254 µM) | 512 (≈ 1020 µM) | 16 (≈ 31.8 µM) | 64 (≈ 127 µM) | 64 (≈ 127 µM) | 256 (≈ 508 µM) | 512 (≈ 1020 µM) | 512 (≈ 1020 µM) | 256 (≈ 508 µM) | 128 (≈ 254 µM) | 512 (≈ 1020 µM)
CCn1cc(C(=O)O)c(=O)c2cc(F)c(N3CCNCC3)cc21 [NORFLOXACIN] | 512 (≈ 1600 µM) | > 512 | 512 (≈ 1600 µM) | 1 (≈ 3.13 µM) |  | 256 (≈ 802 µM) | > 512 | 64 (≈ 200 µM) |  |  |  | 32 (≈ 100 µM) | 8 (≈ 25.1 µM) |  | 4 (≈ 12.5 µM) | 32 (≈ 100 µM)
